From patent publication US10711004B2 (Genentech, Inc., priority 2018, dated 2020)
Like-named read-outs stand apart in the source and are kept apart here.

Molecular target: human TRPA1 channel (Homo sapiens (Human), UniProt O75762)
Assay: hTRPA1 CHO Ca2+ FLIPR Tetra assay, block of cinnamaldehyde induced calcium influx
Format: cell-based
Settings: CHO cells expressing TRPA1, Hill coefficient fixed to 1.5
Method: CHO cells expressing TRPA1 were plated into 384-well plates, incubated overnight at 37° C., and loaded with BD calcium indicator dye for 1 hr at 37° C. followed by 15 minutes at room temperature. The assay buffer was Hank's Balanced Salt Solution (HBSS) containing 20 mM HEPES (pH readjusted to 7.4) along with 0.02% BSA.
Following dye load and plate cool down, compounds were added to the cells using FLIPR Tetra. Plates were then incubated with compounds for 10 minutes or 90 minutes at room temperature prior to adding agonist. Following this incubation, about an EC50 concentration of cinnamaldehyde (75) was added to active the channels and block of cinnamaldehyde induced calcium influx was measured.
Fixing the Hill coefficient will generally reduce variability of the IC50 determination. The IC50 results were individually examined to make sure the MIN and MAX points were set correctly prior to validation of the results.

[1] = read-out: hTRPA1 IC50 (10 min), compounds incubated 10 minutes at room temperature before cinnamaldehyde agonist
[2] = read-out: hTRPA1 IC50 (90 min), compounds incubated 90 minutes at room temperature before cinnamaldehyde agonist

Sequence of human TRPA1 channel (O75762 whole entry): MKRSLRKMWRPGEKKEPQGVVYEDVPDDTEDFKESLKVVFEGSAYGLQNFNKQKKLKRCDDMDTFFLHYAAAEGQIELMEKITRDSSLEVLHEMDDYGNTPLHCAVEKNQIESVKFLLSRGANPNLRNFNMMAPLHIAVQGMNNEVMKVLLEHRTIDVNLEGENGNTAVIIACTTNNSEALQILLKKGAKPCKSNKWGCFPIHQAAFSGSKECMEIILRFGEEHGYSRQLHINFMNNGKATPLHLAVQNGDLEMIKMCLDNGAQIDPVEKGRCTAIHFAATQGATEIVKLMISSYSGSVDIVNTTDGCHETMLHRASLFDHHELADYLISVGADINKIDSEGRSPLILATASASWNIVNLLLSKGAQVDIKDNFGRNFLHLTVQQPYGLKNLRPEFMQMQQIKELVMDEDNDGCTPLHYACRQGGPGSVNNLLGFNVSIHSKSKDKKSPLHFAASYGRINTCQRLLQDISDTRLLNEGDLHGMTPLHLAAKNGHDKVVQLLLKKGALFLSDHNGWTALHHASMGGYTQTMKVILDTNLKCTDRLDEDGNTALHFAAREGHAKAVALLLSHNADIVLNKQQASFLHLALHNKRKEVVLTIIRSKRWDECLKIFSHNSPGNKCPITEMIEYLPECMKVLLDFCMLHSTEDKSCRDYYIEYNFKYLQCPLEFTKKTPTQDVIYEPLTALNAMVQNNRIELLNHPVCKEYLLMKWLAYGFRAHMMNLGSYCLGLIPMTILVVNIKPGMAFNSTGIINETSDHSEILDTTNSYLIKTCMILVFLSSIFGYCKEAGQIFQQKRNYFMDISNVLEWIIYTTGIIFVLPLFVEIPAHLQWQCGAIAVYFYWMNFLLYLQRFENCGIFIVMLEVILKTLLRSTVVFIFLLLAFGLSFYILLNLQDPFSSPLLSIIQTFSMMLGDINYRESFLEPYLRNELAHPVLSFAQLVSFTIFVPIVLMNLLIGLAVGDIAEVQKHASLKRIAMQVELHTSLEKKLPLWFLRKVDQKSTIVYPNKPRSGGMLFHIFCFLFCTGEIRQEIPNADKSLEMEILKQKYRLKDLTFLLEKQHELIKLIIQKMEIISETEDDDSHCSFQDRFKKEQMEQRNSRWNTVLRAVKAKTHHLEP

Compound	IC50 [1]	IC50 [2]
Cn1cnc2ncn(Cc3nc([C@H]4[C@@H]5CN(c6ccc(OC(F)F)cc6)C[C@@H]54)no3)c(=O)c21 [Example Compound 12, 7-methyl-1-[[3-[(1R,5S,6 r)-3-[4-(difluoromethoxy)phenyl]-3-azabicyclo[3.1.0]hexan-6-yl]-1,2,4-oxadiazol-5-yl]methyl]purin-6-one]	0.0504 µM	–
COc1cccc(N2C[C@@H]3[C@H](C2)[C@H]3c2noc(Cn3cnc4ncn(C)c4c3=O)n2)c1 [Example Compound 13, 7-methyl-1-[[3-[(1R,5S,6 r)-3-(3-methoxyphenyl)-3-azabicyclo[3.1.0]hexan-6-yl]-1,2,4-oxadiazol-5-yl]methyl]purin-6-one]	0.158 µM	–
Cc1ccnc2ncn(Cc3nc([C@H]4C[C@H](c5ccc(Cl)cc5)C4)no3)c(=O)c12 [Example Compound 17, 3-((3-((trans)-3-(4-chlorophenyl)cyclobutyl)-1,2,4-oxadiazol-5-yl)methyl)-5-methylpyrido[2,3-d]pyrimidin-4(3H)-one]	0.0213 µM	–
Cn1cnc2ncn(Cc3nc([C@H]4[C@@H]5CN(c6cccnc6)C[C@@H]54)no3)c(=O)c21 [Example Compound 18, 7-methyl-1-[[3-[(1R,5S,6r)-3-(3-pyridyl)-3-azabicyclo[3.1.0]hexan-6-yl]-1,2,4-oxadiazol-5-yl]methyl]purin-6-one]	0.778 µM	–
Cn1cnc2c(C#N)nn(Cc3nc([C@H]4[C@@H]5CN(c6ccccc6)C[C@@H]54)no3)c2c1=O [Example Compound 22, 6-methyl-7-oxo-1-[[3-[(1R,5S,6s)-3-phenyl-3-azabicyclo[3.1.0]hexan-6-yl]-1,2,4-oxadiazol-5-yl]methyl]pyrazolo[4,3-d]pyrimidine-3-carbonitrile]	0.352 µM	–
Cn1cnc2ncn(Cc3nc([C@@H]4[C@@H]5CN(c6cccc(Cl)c6)C[C@@H]54)no3)c(=O)c21 [Example Compound 24, 7-methyl-1-[[3-[(1R,5S,6 r)-3-(3-chlorophenyl)-3-azabicyclo[3.1.0]hexan-6-yl]-1,2,4-oxadiazol-5-yl]methyl]purin-6-one]	0.00838 µM	–
Cn1cnc2ncn(Cc3nc([C@H]4[C@@H]5CN(c6ccc(Cl)cc6)C[C@@H]54)no3)c(=O)c21 [Example Compound 25, 7-methyl-1-[[3-[(1R,5S,6 r)-3-(4-chlorophenyl)-3-azabicyclo[3.1.0]hexan-6-yl]-1,2,4-oxadiazol-5-yl]methyl]purin-6-one]	0.0204 µM	–
Cc1ccnc2ncn(Cc3nc(C4Cc5ccccc5C4)no3)c(=O)c12 [Example Compound 27, 3-((3-(2,3-dihydro-1H-inden-2-yl)-1,2,4-oxadiazol-5-yl)methyl)-5-methylpyrido[2,3-d]pyrimidin-4(3H)-one]	0.531 µM	–
Cc1ccnc2ncn(Cc3nc([C@H]4[C@@H]5CN(c6ccc(Cl)cc6)C[C@@H]54)no3)c(=O)c12 [Example Compound 29, 5-methyl-3-[[3-[(1R,5S,6r)-3-(4-chlorophenyl)-3-azabicyclo[3.1.0]hexan-6-yl]-1,2,4-oxadiazol-5-yl]methyl]pyrido[2,3-d]pyrimidin-4-one]	0.29 µM	–
Cn1cnc2ncn(Cc3nc([C@H]4[C@@H]5CN(c6cccc(C(F)(F)F)c6)C[C@@H]54)no3)c(=O)c21 [Example Compound 30, 7-methyl-1-[[3-[(1R,5S,6r)-3-[3-(trifluoromethyl)phenyl]-3-azabicyclo[3.1.0]hexan-6-yl]-1,2,4-oxadiazol-5-yl]methyl]purin-6-one]	0.0527 µM	–
Cn1cnc2ncn(Cc3nc([C@H]4[C@@H]5CN(c6ccc(C(F)(F)F)cc6)C[C@@H]54)no3)c(=O)c21 [Example Compound 31, 7-methyl-1-[[3-[(1R,5S,6r)-3-[4-(trifluoromethyl)phenyl]-3-azabicyclo[3.1.0]hexan-6-yl]-1,2,4-oxadiazol-5-yl]methyl]purin-6-one]	0.0971 µM	–
Cn1cnc2ncn(Cc3nc([C@H]4[C@@H]5CN(c6ccc(C=O)cc6)C[C@@H]54)no3)c(=O)c21 [Example Compound 32, 4-[(1R,5S,6r)-6-[5-[(7-methyl-6-oxo-purin-1-yl)methyl]-1,2,4-oxadiazol-3-yl]-3-azabicyclo[3.1.0]hexan-3-yl]benzaldehyde]	0.0549 µM	–
Cn1cnc2ncn(Cc3nc([C@H]4[C@@H]5CN(c6ccc7ccccc7c6)C[C@@H]54)no3)c(=O)c21 [Example Compound 33, 7-methyl-1-[[3-[(1R,5S,6r)-3-[2-naphthyl]-3-azabicyclo[3.1.0]hexan-6-yl]-1,2,4-oxadiazol-5-yl]methyl]purin-6-one]	0.00731 µM	–
Cn1cnc2ncn(Cc3nc([C@H]4[C@@H]5CN(c6ccc(Cl)nc6)C[C@@H]54)no3)c(=O)c21 [Example Compound 34, 7-methyl-1-[[3-[(1R,5S,6r)-3-[6-chloro-3-pyridyl]-3-azabicyclo[3.1.0]hexan-6-yl]-1,2,4-oxadiazol-5-yl]methyl]purin-6-one]	0.464 µM	–
COc1ccc(N2C[C@@H]3[C@H](C2)[C@H]3c2noc(Cn3cnc4ncn(C)c4c3=O)n2)cc1 [Example Compound 35, 7-methyl-1-[[3-[(1R,5S,6r)-3-[4-methoxyphenyl]-3-azabicyclo[3.1.0]hexan-6-yl]-1,2,4-oxadiazol-5-yl]methyl]purin-6-one]	0.048 µM	–
Cc1cncc2ncn(Cc3nc([C@H]4[C@@H]5CN(c6ccc(Cl)cc6)C[C@@H]54)no3)c(=O)c12 [Example Compound 36, 5-methyl-3-[[3-[(1R,5S,6r)-3-(4-chlorophenyl)-3-azabicyclo[3.1.0]hexan-6-yl]-1,2,4-oxadiazol-5-yl]methyl]pyrido[3,4-d]pyrimidin-4-one]	0.0714 µM	–
Cc1cncc2ncn(Cc3nc([C@H]4C[C@](F)(c5ccc(Cl)cc5)C4)no3)c(=O)c12 [Example Compound 37, 3-((3-((1s,3s)-3-(4-chlorophenyl)-3-fluorocyclobutyl)-1,2,4-oxadiazol-5-yl)methyl)-5-methylpyrido[3,4-d]pyrimidin-4(3H)-one]	0.0228 µM	–
Cc1ccnc2ncn(Cc3nc([C@H]4C[C@](F)(c5ccc(Cl)cc5)C4)no3)c(=O)c12 [Example Compound 38, 3-((3-((1s,3s)-3-(4-chlorophenyl)-3-fluorocyclobutyl)-1,2,4-oxadiazol-5-yl)methyl)-5-methylpyrido[2,3-d]pyrimidin-4(3H)-one]	0.0289 µM	–
Cn1cnc2ncn(Cc3nc([C@H]4[C@@H]5CN(c6cc(F)cc(F)c6)C[C@@H]54)no3)c(=O)c21 [Example Compound 92, 1-((3-((1R,5S,6r)-3-(3,5-difluorophenyl)-3-azabicyclo[3.1.0]hexan-6-yl)-1,2,4-oxadiazol-5-yl)methyl)-7-methyl-1,7-dihydro-6H-purin-6-one]	0.0206 µM	0.0031 µM
Cn1cnc2ncn(Cc3nc([C@H]4[C@@H]5C=C(c6ccc(F)c(F)c6)C[C@@H]54)no3)c(=O)c21 [Example Compound 93, 1-((3-((1S,5S,6R)-3-(3,4-difluorophenyl)bicyclo[3.1.0]hex-2-en-6-yl)-1,2,4-oxadiazol-5-yl)methyl)-7-methyl-1,7-dihydro-6H-purin-6-one]	0.0127 µM	0.0039 µM
Cn1cnc2ncn(Cc3nc([C@@H]4[C@H]5C=C(c6ccc(F)c(F)c6)C[C@H]54)no3)c(=O)c21 [Example Compound 94, 1-((3-((1R,5R,6S)-3-(3,4-difluorophenyl)bicyclo[3.1.0]hex-2-en-6-yl)-1,2,4-oxadiazol-5-yl)methyl)-7-methyl-1,7-dihydro-6H-purin-6-one]	0.00935 µM	0.0049 µM
Cc1cnn2ncn(Cc3nc([C@H]4[C@@H]5CN(c6ccccc6)C[C@@H]54)no3)c(=O)c12 [Example Compound 95, 5-methyl-3-((3-((1R,5S,6r)-3-phenyl-3-azabicyclo[3.1.0]hexan-6-yl)-1,2,4-oxadiazol-5-yl)methyl)pyrazolo[5,1f][1,2,4]triazin-4(3H)-one]	0.00811 µM	0.0035 µM
O=c1c2cccnc2cnn1Cc1nc([C@H]2[C@@H]3CN(c4cccc(F)c4)C[C@@H]32)no1 [Example Compound 96, 6-((3-((1R,5S,6r)-3-(3-fluorophenyl)-3-azabicyclo[3.1.0]hexan-6-yl)-1,2,4-oxadiazol-5-yl)methyl)pyrido[2,3-d]pyridazin-5(6H)-one]	0.00839 µM	0.0051 µM
Cn1cnc2ncn(Cc3nc([C@H]4[C@@H]5CN(c6ccccc6F)C[C@@H]54)no3)c(=O)c21 [Example Compound 97, 1-((3-((1R,5S,6r)-3-(2-fluorophenyl)-3-azabicyclo[3.1.0]hexan-6-yl)-1,2,4-oxadiazol-5-yl)methyl)-7-methyl-1,7-dihydro-6H-purin-6-one]	0.0481 µM	0.019 µM
Cn1cnc2ncn(Cc3nc([C@H]4[C@@H]5CN(c6ccccc6C#N)C[C@@H]54)no3)c(=O)c21 [Example Compound 98, 2-((1R,5S,6r)-6-(5-((7-methyl-6-oxo-6,7-dihydro-1H-purin-1-yl)methyl)-1,2,4-oxadiazol-3-yl)-3-azabicyclo[3.1.0]hexan-3-yl)benzonitrile]	0.157 µM	0.1 µM
Cn1cnc2ncn(Cc3nc([C@H]4[C@@H]5CN(c6cc(F)ccc6F)C[C@@H]54)no3)c(=O)c21 [Example Compound 99, 1-((3-((1R,5S,6r)-3-(2,5-difluorophenyl)-3-azabicyclo[3.1.0]hexan-6-yl)-1,2,4-oxadiazol-5-yl)methyl)-7-methyl-1,7-dihydro-6H-purin-6-one]	0.0151 µM	0.0063 µM
